{"source": "patent US20130109572A1", "about": "“HERBICIDAL COMPOSITIONS AND METHODS OF USE” (The Board of Trustees of the University of Alabama, priority 2010, published 2013)", "key": {"[1]": {"test_system": "white mustard (Sinapis alba L.)", "assay": "Growth chamber spray test, fresh mass of white mustard (Mecoprop ionic liquids)", "type": "in vivo", "details": "0.001 M spray in water/ethanol (1:2), 200 L/ha, 2 weeks after application; for Reduction of fresh mass (%): vs unsprayed control", "method": "The research was conducted under controlled environmental conditions in a dedicated growth chamber. The test plant was white mustard (Sinapis alba L.). Seeds were sown into soil-filled containers equal to the depth of 1 cm. After producing first leave, only 5 plants were allowed to stay in each pot. After producing the 3rd leaf, the plants were sprayed with the ionic liquids studied using a Tee Jet 1102 sprayer, the sprayer moving above the plants at a constant speed of 3.1 m/s. The spray distance from the tips of the plant was 40 cm, the pressure of liquid in sprayer was 0.2 MPa, and a liquid in the expenditure per 1 ha was 200 L.\nExamples of the ionic liquids described herein were dissolved in a solution of water and ethanol (1:2) in an amount corresponding to a concentration of 0.001 mol/L, or 0.533 g/L [DDA][MCPP-P], 0.520 g/L [BA][MCPP-P], and 0.546 g/L [DOM] [MCPP-P]. As a comparison, a commercial product containing 600 g of the herbicide Mecoprop-P in 1 L was used. After spraying the plants, the pots were placed back in a growth chamber at a temperature of 20° C. (±2° C.) and humidity of 50%. The illumination time was 16 hours per day.\nAfter a period of 2 weeks, the plants were cut to the soil level and weighed (0.1 g accuracy). A study was carried out in 4 replications in a completely randomized setup. The reduction of plant fresh weight as compared to control (no sprayed plants) was measured."}, "[2]": {"test_system": "common lambsquarters (Chenopodium album)", "assay": "Growth chamber spray test, fresh weight reduction (Dicamba ionic liquid)", "type": "in vivo", "details": "2 WAT"}, "[3]": {"test_system": "white mustard (Sinapis alba)", "assay": "Growth chamber spray test, fresh weight reduction (Dicamba ionic liquid)", "type": "in vivo", "details": "for Fresh weight reduction (%) Sinapis alba: 2 WAT"}, "[4]": {"test_system": "common lambsquarters (Chenopodium album)", "assay": "Field test, visual effectiveness of weed eradication", "type": "in vivo", "details": "field plots, 4 WAT, mean estimate, solutions of 0.01 and 0.02 mol/dm^3, 100% = complete destruction", "method": "(§1) Field test. The research was conducted in the Field Experimental Station of the Institute of Plant Protection in Winna Gora on the plots of dimensions 1.5 m×5 m. The test plants were common lambsquarters (Chenopodium album) and cornflower (Centaurea cyanus). The investigated ion pairs were alkyltrimethylammonium 3,6-dichloro-2-methoxybenzoate ([ATMA][Dicamba]) and didecyldimethylammonium 3,6-dichloro-2-methoxybenzoate ([DDA][Dicamba]).\n(§2) Solutions of investigated ion pairs were prepared as follows: alkyltrimethylammonium 3,6-dichloro-2-methoxybenzoate [ATMA][Dicamba] and didecyldimethylammonium 3,6-dichloro-2-methoxybenzoate [DDA][Dicamba] were dissolved in a mixture of water and ethanol (1:1) in an amount corresponding to a concentration of 0.01 and 0.02 mol/dm^3. […] As controls, objects with no treatment were used and sprayed only with a solution of water and ethanol (1:1).\n(§3) The procedures were performed using a sprayer equipped with a flat stream nozzles type Tee Jet 110 03 XR, with a steady pressure of 0.2 MPa and the expense of the liquid in use in 200 L per 1 hectare. During the procedure, the following weeds were at following developmental phases: common lambsquarters—from 4 to 10 leaves; and cornflower—a fully-formed rosette.\n(§4) The effectiveness of weed eradication was evaluated visually by comparing the state of weeds on each plot treated with [DDA][Dicamba] and control solution."}, "[5]": {"test_system": "cornflower (Centaurea cyanus)", "assay": "Field test, visual effectiveness of weed eradication", "type": "in vivo", "details": "field plots, 4 WAT, mean estimate, solutions of 0.01 and 0.02 mol/dm^3, 100% = complete destruction", "method": "as §1, §2, §3, §4"}, "[6]": {"test_system": "common poppy (Papaver rhoeas)", "assay": "Growth chamber spray test, fresh weight reduction (Glyphosate ionic liquids)", "type": "in vivo", "details": "0.01 mol/L in water; 2 WAT", "method": "Experiment in growth chamber: Temperature—20° C., humidity—60%, photoperiod (day/night hours)—16/8. The research was conducted under controlled environmental conditions in a dedicated growth chamber. The test plant was common poppy (Papaver rhoeas). The seeds were sown into soil-filled containers equal to the depth of 0.1 cm. After producing leaves, only 1 plant was allowed to stay in each pot. After producing the rosette, the plants were sprayed with the ionic liquids using a sprayer with Tee Jet 1102 nozzles. The sprayer was moving above the plants at a constant speed of 3.1 m/s. The spray distance from the tips of the plant was 40 cm, the pressure of liquid in sprayer was 0.2 MPa, and the liquid in the expenditure per 1 ha was 200 L.\nThe ionic liquids were dissolved in water in an amount corresponding to a concentration of 0.01 mol/L or 4.94 g/L [DDA][Glyphosate], 4.88 g/L [BA][Glyphosate]. As a comparison, a commercial product ROUNDUP™ containing 360 g of Glyphosate in 1 L was used. After spraying the plants, the pots were placed back in a growth chamber at a temperature of 20° C. (±2° C.) and humidity of 60%. The illumination time was 16 hours per day.\nAfter a period of 2 weeks, the plants were cut right to the soil level and weighed (0.1 g accuracy). Fresh weight was used as the effect parameter. […]"}, "rat": {"test_system": "rat", "details": "cited from earlier work"}, "[7]": {"details": "0.001 mole/L in water/DMSO (2:1)"}, "[8]": {"details": "0.002 mole/L in water/DMSO (2:1)"}, "[9]": {"details": "0.004 mole/L in water/DMSO (2:1)"}}}
{"compound": "Domiphen (+)-(R)-2-(4-chloro-2-methylphenoxy)propionate [[DOM][MCPP-P]]", "values": [{"measurement": "Fresh mass of white mustard", "setting": "[1]", "result": 4.08, "unit": "g"}, {"measurement": "Reduction of fresh mass (%)", "setting": "[1]", "result": 66.5, "unit": "%"}]}
{"compound": "Didecyldimethylammonium (+)-(R)-2-(4-chloro-2-methylphenoxy)propionate [[DDA][MCPP-P]]", "values": [{"measurement": "Fresh mass of white mustard", "setting": "[1]", "result": 4.78, "unit": "g"}, {"measurement": "Reduction of fresh mass (%)", "setting": "[1]", "result": 60.7, "unit": "%"}]}
{"compound": "Benzalkonium (±)-2-(4-chloro-2-methylphenoxy)propionate [[BA][MCPP]]", "values": [{"measurement": "Fresh mass of white mustard", "setting": "[1]", "result": 5.13, "unit": "g"}, {"measurement": "Reduction of fresh mass (%)", "setting": "[1]", "result": 57.8, "unit": "%"}]}
{"compound": "Didecyldimethylammonium 3,6-dichloro-2-methoxybenzoate [[DDA][Dicamba]]", "values": [{"measurement": "Fresh weight reduction (%) Chenopodium album", "setting": "[2]; [7]", "result": 16.7, "unit": "%"}, {"measurement": "Fresh weight reduction (%) Chenopodium album", "setting": "[2]; [8]", "result": 41.7, "unit": "%"}, {"measurement": "Fresh weight reduction (%) Chenopodium album", "setting": "[2]; [9]", "result": 45.7, "unit": "%"}, {"measurement": "Fresh weight reduction (%) Sinapis alba", "setting": "[3]; [7]", "result": 6.8, "unit": "%"}, {"measurement": "Fresh weight reduction (%) Sinapis alba", "setting": "[3]; [8]", "result": 18.5, "unit": "%"}, {"measurement": "Fresh weight reduction (%) Sinapis alba", "setting": "[3]; [9]", "result": 27.1, "unit": "%"}, {"measurement": "Effect on the weight of Sinapis alba compared with neutral Dicamba", "setting": "[3]; growth chamber, preliminary comparison", "result": "substantially more active than neutral Dicamba"}, {"measurement": "Effectiveness of Weed Eradication (%) Chenopodium album", "setting": "[4]", "result": 92, "unit": "%"}, {"measurement": "Effectiveness of Weed Eradication (%) Centaurea cyanus", "setting": "[5]", "result": 95, "unit": "%"}]}
{"compound": "Didecyldimethylammonium Glyphosate [[DDA][Glyphosate]]", "values": [{"measurement": "Fresh weight reduction of Papaver rhoeas (%)", "setting": "[6]", "result": 78.3, "unit": "%"}]}
{"compound": "Cc1cc(Cl)ccc1OCC(=O)O", "note": "[MCPA, 4-chloro-2-methylphenoxyacetic acid]", "values": [{"measurement": "rat LD50", "setting": "rat", "result": "962 to 1470", "unit": "mg/kg"}]}
{"compound": "Benzalkonium Glyphosate [[BA][Glyphosate]]", "values": [{"measurement": "Fresh weight reduction of Papaver rhoeas (%)", "setting": "[6]", "result": 84.0, "unit": "%"}]}
{"compound": "O=C(O)COc1ccc(Cl)cc1Cl", "note": "[Example 2.4-D, 2,4-dichlorophenoxyacetic acid]", "values": [{"measurement": "rat LD50", "setting": "rat", "result": "639 to 764", "unit": "mg/kg"}]}
